The results in this text go back to US8361970B2, “Growth factor binding molecules” (University of South Florida, priority 2000, dated 2013).

The target of experiment [1] is T1, PDGF-BB (Homo sapiens, UniProt P01127).
T1 construct: host or cells: NIH 3T3 cells carry the receptor
The experiment in a line: Inhibition of [125I]-PDGF-BB binding to its receptor on NIH 3T3 cells. The following applies: FIG. 2C. On the procedure: NIH 3T3 (PDGF) or NIH 3T3 cells overexpressing either EGFR (EGF), IGFR (IGF) or Flk-1 (VEGF), are incubated with [^125I]-PDGF, [^125I]-EGF, [^125I]-IGF or [^125I]-VEGF, respectively (50,000 cpm per well) and increasing concentrations of GFB-111 or GFB-116. Cells are incubated at 4° C. for 1-3 h. After discarding media, the cells are washed 3 times with PBS and three times with Tris 25 mM pH 8.0, 1% T-X-100, 10% glycerol, 1% SDS. Lysates plus wash are counted. Excess of cold growth factors is used to obtain non-specific binding levels.
Whether GFB 111 can block [^125I]-PDGF-BB specific binding in NIH 3T3 cells is determined by pre-treatment of the PDGF-BB with increasing concentrations of GFB-111. FIG. 2C illustrates that in the absence of GFB-111, [^125I]-PDGF-BB is bound by NIH3T3 cells. However, pre-treatment with increasing concentrations of GFB-111, results in a concentration-dependent decrease in PDGF-BB binding.

Experiment [2] addresses T1, PDGF-BB. As to the kind of experiment: Binding to PDGF-BB by native PAGE / SDS-PAGE gel electrophoresis. As to the method:
GFB-111 (50 μM) is incubated with buffer A (PBS 0.5% BSA) or PDGF-BB (1, 3 and 4µM in buffer A) at room temperature for 10 minutes. The mixtures are then loaded onto a native 4% PAGE. The gel is then stained with silver nitrate. Duplicate lanes are run in the same gel but are not stained. Bands corresponding to the boxed area are cut out of the lanes of the gel that is not stained, denatured with SDS-PAGE loading buffer (Tris 100 mM pH 6.8, 15% Glycerol, 3% SDS, 7.5% b-mercaptoethanol, 0.05% bromophenol blue), loaded onto a 4% SDS-PAGE gel and silver stained.
The structure activity relationship results in Table 1 are consistent with GFB-111 being a PDGF-BB binding molecule. […] PDGF to its receptor on NIH 3T3 cells is determined by gel electrophoresis by mixing GFB-111 with PDGF-BB. […] FIG. 2B illustrates that the GFB-111 standard (lane 5) as well as the GFB-111 band cut out of FIG. 2A gel (lane 1) migrates on SDS-PAGE as a single band that elutes faster than the dye front. Their separation on SDS-PAGE (lane 2) is confirmed by mixing PDGF-BB standard (lane 4) and GFB-111 standard (lane 5).
GFB-111 is incubated with increasing concentrations of PDGF-BB and the mixtures are then loaded onto native PAGE. […]

The subject of experiment [3] is IGF-1 stimulated MAP kinase activation. The experiment in a line: Inhibition of IGF-1 stimulated MAP kinase (p42/p44) activation in IGFR/3T3 cells. Type of experiment: cell-based. As to the method:
(§1) In other experiments, starved NIH 3T3 cells (PDGF-AA, PDGF-BB, aFGF, bFGF), NIH 3T3 cells overexpressing EGFR. IGF-1R or Flk-1 and the human breast carcinoma SkBr3 that overexpresses ErbB2 (HRGβ) are pretreated with GFB-111 (100 μM) for 5 min before 10 min stimulation with the indicated growth factors at the concentrations shown above and aFGF (10 ng/ml), bFGF (50 ng/ml), IGF-1 (50 ng/ml) and HRGβ (10 ng/ml). Cell lysates are then immunoblotted with anti-phospho Erk1/Erk2 as described above.
The ability of the GFB library to block the ability of IGF-1 to stimulate the IFG-1 R tyrosine phosphorylation and MAP kinase activation is evaluated using the cell assay described above with IGF-1R/3T3 cells as target cell. […] A preferred embodiment of the invention is a compound that binds to an insulin-like growth factor-1, of the general structure III, wherein R is n-butyl, n-propyl, or benzyl, and X1, X2, X3, and X4 optionally comprise identical cyclic peptide loops of the general structure II, and wherein R1, R2, R3, and R4 are each amino acid side chains that define a tetrapeptide sequence, wherein said tetrapeptide is covalently attached at the amino and carboxy termini of said tetrapeptide to a 3-aminomethyl-5-aminobenzamide linking group.

The test system of experiment [4] is aFGF-stimulated MAP kinase activation of p42 and p44. The experiment in a line: Inhibition of aFGF stimulation of p42/p44 MAP kinase in NIH 3T3 cells. Type of experiment: cell-based. As to the method:
as §1
The ability of growth factor binding agents in the library of growth factor binding agents to block an aFGF signal is measured by aFGF-stimulation of MAP kinase activation of p42 and p44 essentially as described above for VEGF. NIH 3T3 cells are used as the target cell. […] A preferred embodiment of the invention is a compound that binds to acidic fibroblast growth factor, of the general structure III, in which R is n-butyl, n-propyl, or benzyl, and X1, X2, X3, and X4 optionally comprise covalently attached cyclic peptide loops of the general structure II, wherein R1, R2, R3, and R4 are each amino acid side chains that define a tetrapeptide sequence, wherein said tetrapeptide is covalently attached at the amino and carboxy termini of said tetrapeptide to a 3-aminomethyl-5-aminobenzamide linking group, and wherein said tetrapeptide sequence is as given, for example, in Table 5.

Experiment [5] has as its system human lung adenocarcinoma A-549. The experiment in a line: Antitumor efficacy, A-549 xenograft in nude mice. Format: in vivo. Conditions: for Inhibition of A-549 tumor growth in nude mice: 50 mg per kg per day.
[6] abbreviates: 100 μM, IGFR/3T3, IGF-1 stimulated.
Setting [7] is: concentrations as high as 100 μM.

“And” between values parts separate entries of the source, which are not always exact repeats. Equal entries are not always repeated.

T1 sequence (P01127 82-190 limits assumed): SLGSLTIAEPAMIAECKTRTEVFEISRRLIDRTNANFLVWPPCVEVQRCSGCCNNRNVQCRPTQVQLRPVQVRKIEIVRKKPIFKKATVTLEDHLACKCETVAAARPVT

For orientation: % Inhibition means the change of the read-out against control, counted positive when it falls. For GKGK [GFB-116], the “Block of PDGF-BB binding to its receptor” value on PDGF-BB [1] is reported as “not”. In addition, the “Binding to PDGF-BB (complex on native PAGE)” value at PDGF-BB [2] is given as “does not bind”. Further, the “% Inhibition at 100 μM p44” value in experiment [3] (setting [6]) was 25.2% and 43.5%. The “Block of aFGF-stimulation of MAP kinase activation of p42 and p44” value in experiment [4] (NIH 3T3) is given as “very effective”. In experiment [5], the “Inhibition of A-549 tumor growth in nude mice” value is “inhibits the growth”.

Take `CCCCOc1c2cc(C(=O)Nc3cc4cc(c3)C(=O)NCC(=O)N[C@@H](CC(=O)O)C(=O)NCC(=O)N[C@@H](Cc3ccc(O)cc3)C(=O)NC4)cc1Cc1cc(C(=O)Nc3cc4cc(c3)C(=O)NCC(=O)N[C@@H](CC(=O)O)C(=O)NCC(=O)N[C@@H](Cc3ccc(O)cc3)C(=O)NC4)cc(c1OCCCC)Cc1cc(C(=O)Nc3cc4cc(c3)C(=O)NCC(=O)N[C@@H](CC(=O)O)C(=O)NCC(=O)N[C@@H](Cc3ccc(O)cc3)C(=O)NC4)cc(c1OCCCC)Cc1cc(C(=O)Nc3cc4cc(c3)C(=O)NCC(=O)N[C@@H](CC(=O)O)C(=O)NCC(=O)N[C@@H](Cc3ccc(O)cc3)C(=O)NC4)cc(c1OCCCC)C2` [GFB-111]: the “Block of PDGF-BB binding to its receptor” value on PDGF-BB [1] was “blocked”. Moreover, the “Binding to PDGF-BB (complex on native PAGE)” value at PDGF-BB [2] is “does indeed contain both PDGF-BB and GFB-111”. Also, in experiment [3] (setting [6]), the “% Inhibition at 100 μM p42” value is recorded as −18.4% and the “% Inhibition at 100 μM p44” value was determined as 10.7%. In addition, in experiment [3] (setting [7]), the “IGF-1-activation of Erk1/Erk2” value is given as “minimally affected”. In experiment [4] (setting [7]), the “aFGF-activation of Erk1/Erk2” value was “minimally affected”. Also, the “Inhibition of A-549 tumor growth in nude mice” value in experiment [5] is on record as “effective”. In experiment [5] (A-549, 50 mpk, day in parentheses in cell), the “% Tumor growth inhibition” value is 62% (30) and 53% (31) and 64% (27).
